According to US12398117B2, “Heteroarylamidopyridinol derivative and pharmaceutical composition comprising same as active ingredient for prevention or treatment of autoimmune disease” (INNOVO THERAPEUTICS INC., priority 2019, dated 2025):

Assays:
[1] = test system: adhesion of intestinal epithelial cells (HT-29) and monocytic cells (U937) induced by IL-6; assay: Inhibition of IL-6-induced adhesion of monocytes and intestinal epithelial cells; type: cell-based, human; conditions: Homo sapiens, 3 h; test drug 1 μM; IL-6 10 ng/mL; HT-29/U937; read-out: inhibitory activity (%)
In short: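 HT-29 monolayers pretreated 1 h with test drug in 1% FBS medium, then co-incubated 3 h at 37 °C with BCECF-labeled U937 monocytes plus IL-6 (10 ng/mL). After removal of non-adherent cells, bound monocytes quantified by BCECF fluorescence of Triton X-100 lysates.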

[2] = test system: DSS-induced chronic enteritis mouse model; assay: Oral efficacy in DSS-induced chronic enteritis mouse model; type: in vivo, C57BL/6 mice; conditions: for Body weight recovery rate (%) / Intestinal weight recovery rate (%): chronic enteritis (DSS-water-DSS, total 35 days), mouse, 30 mg/kg
Method: (§1) C57BL/6 mice aged 7-8 weeks were purchased from OrientBio (Korea), stabilized with general solid feed for 7 days, and then used in this experiment. Feed and water were freely supplied during the experiment period, and the temperature of the breeding room was maintained at 25±1° C. and the relative humidity at 50±10%. Lighting management was controlled in a 12-hour light-dark cycle by an automatic lighting controller.
(§2) Enteritis was induced in mice by allowing them to freely ingest drinking water containing 2% DSS salt (M.W. 36,000˜50,000, MP Biomedicals, LLC, OH, USA). For the chronic enteritis model, DSS was administered using a schedule of DSS administration for the first 7 days, administration of normal drinking water for 14 days, repeated administration of DSS for 7 days from the 21st day, and administration of normal drinking water for 7 days. The drug was administered once a day, 6 days a week from the first day of DSS treatment (FIG. 2A). […] In order to measure the dose-dependent therapeutic effect of the drug in the acute enteritis model, DSS was administered for 5 days to induce enteritis, and then the drug was administered for 14 days to measure the degree of recovery and treatment of enteritis (FIG. 3A). The drug was administered orally once daily for […] at a fixed time.
(§3) Changes in body weight of each mouse were observed during the DSS and drug administration using a digital mass meter.
(§4) The colon of the mouse was extracted, and the length and weight from the anus to the cecum were measured.
(§5) Tissue staining was performed in the same manner as in the case of hematoxylin/eosin staining of the rat colon tissue, and scoring indexes of mucosal damage and recovery were applied in the same way.

[3] = test system: DSS-induced acute enteritis mouse model; assay: Oral efficacy in DSS-induced acute enteritis mouse model; type: in vivo, C57BL/6 mice; conditions: acute enteritis (DSS), mouse, 30 mg/kg
Method: as §1, §2, §3, §4
The degree of neutrophil infiltration in the tissue was measured by the amount of MPO, a neutrophil marker enzyme. The colon tissue with a size of 1 cm was washed with cold PBS and weighed, to which a lysis buffer (pH7.4, 200 mM NaCl, 5 mM EDTA, 10 mM tris, 10% glycerin, 1 mM PMSF, 1 μg/mL leupeptin and 28 μg/mL aprotinin) was added (500 μL of per 10 mg of tissue weight), and then homogenized using Bead Blaster® D2400 homogenizer (Benchmark Scientific, NJ, USA). […] (HK210, Hycult Biotechnology, Netherlands). The supernatant was added to a 96 well plate (100 μL/well) coated with an anti-mouse MPO antibody, and incubated for 1 hour at room temperature, followed by washing 3 times with a washing buffer. A reconstituted tracer was added to the plate (100 μL/well), which was reacted at room temperature for 1 hour, washed 3 times, and then 100 μL of streptavidin-peroxidase conjugate was added to each well of the plate. The plate was reacted at room temperature for 1 hour, washed, and 100 μl of TMB substrate solution was added to each well of the plate, followed by reaction for 30 minutes. The reaction was terminated by adding 100 μL of a stop solution to each well of the plate, and absorbance was measured at 450 nm. MPO activity means the amount of 1 μM […] at 25° C. for 1 minute. This was calculated as the amount of MPO contained in 1 mL of the colon tissue homogenate.
as §5

[4] = test system: collagen-induced rheumatoid arthritis animal model; assay: Oral efficacy in collagen-induced rheumatoid arthritis (CIA) mouse model; type: in vivo, DBA/1J mice; conditions: oral, up to 35 days, FIG. 5A
Method: 12-week-old normal male mice and arthritis-induced DBA/1J mice were purchased from Central Lab. Animal Inc [To induce arthritis, DBA/1J mice were sensitized by injecting a mixed solution of Complete Freund's Adjuvant (CFA; DIFCO, Detroit, MI) and Bovine Type II collagen (1:1, v/v) intradermally at the pinna base at 8 weeks of age, and then, secondary sensitization was performed by intradermal injection at the tail head at 11 weeks of age]. The purchased arthritis mice were acclimatized to the laboratory environment for a week, and then oral administration of the drug was started.
Visual observation of arthritic lesions was performed using the following scores based on a reference (Barnett et al., 1998).
Therefore, the highest score for arthritic lesions was 16 per mouse.
The hind paw thickness, which is one of the pathological indices of rheumatoid arthritis, was measured using a caliper.
The right hind leg of each mouse was extracted, and all skin and muscles were removed, leaving only the bones and joints. The hind leg was fixed in 4% paraformaldehyde solution for 2 days, then immersed in 10% formic acid for 5 days to decalcify, and then immersed in 30% sucrose solution. When the tissue subsided, the articular tissue was cut into […] thick using a cryomicrotome (Microm HM 450, Thermo Fisher Scientific, Germany) and stored in a cryopreservation solution. Staining was performed using the stored tissue sections. After attaching the tissue sections to the slide glass, they were hydrated with 100%, 95%, 70%, and 50% ethanol solutions, and some were stained with safranin and others were stained with hematoxylin/eosin. For safranin staining, the tissue sections were first stained with 0.1% fast green solution, washed with 1% acetic acid solution, and then stained with 1% safranin solution. Thereafter, the tissue sections were dehydrated by immersing in ethanol solutions in the reverse order of hydration, and then preserved in xylene solution and mounting solution, and photographed under a microscope. Hematoxylin/eosin staining was performed in the same manner as in the colon tissue staining. The tissue sections were dehydrated, preserved in xylene solution and mounting solution, and observed under a microscope.
The degree of microscopic tissue damage of the stained articular tissue was measured using the following scores.
After the spleen and draining lymph nodes of the mice were extracted, the number of immune cells was counted. To confirm the distribution of Th1 and Th17 cells, the immune cells obtained from each organ were stimulated using PMA/Ionomycin and Golgi stop.
After staining using an anti-IFN-γ antibody that can identify Th1 cells, an anti-IL-17 antibody that can identify Th17 cells, and an anti-CD8 antibody that can identify cytotoxic T cells, the proportion of inflammatory cells among the total immune cells was confirmed using flow cytometry.

## C[C@@H]1CCN(C(=O)CC#N)C[C@@H]1N(C)c1ncnc2[nH]ccc12 [Tofacitinib, reference compound]
[1]
  inhibition at 1 µM: 49.1%
[2]; DSS mouse, sulfasalazine 300 mg/kg, tofacitinib 30 mg/kg, FIG. 2C
  Morphological observation of colon (length, macroscopic symptoms, adhesions, congestion): significantly suppressed
[2]
  Body weight recovery rate (%): 29.5%
  Intestinal weight recovery rate (%): 68.2%
[2]; listed as tofacitinib
  Body weight recovery rate (%): 29.4%
  Intestinal weight recovery rate (%): 68.8%
[3]
  Body weight recovery rate (%): 80.8%
  Intestinal weight recovery rate (%): 80.9%
[3]; listed as tofacitinib
  Body weight recovery rate (%): 80.9%
[4]
  degree of arthritis (visual observation score): significantly improved dose dependently
